Laboratory results published in paper PMC7305236, “The atypical chemokine receptor ACKR3/CXCR7 is a broad-spectrum scavenger for opioid peptides” (Nature Communications, 2020).
Where two headings read alike, the source gives them in different places.

Legend:
Parameters in all cases: dose or concentration left out as unconfirmed
[1] = biological target: T1, CCR2 (Homo sapiens, UniProt P41597); experiment: Figure S2a opioid peptide screen on chemokine receptors; assay type: cell-based
T1 construct: expressed in transfected cells
T1 sequence (P41597 1-360 isoform P41597-2): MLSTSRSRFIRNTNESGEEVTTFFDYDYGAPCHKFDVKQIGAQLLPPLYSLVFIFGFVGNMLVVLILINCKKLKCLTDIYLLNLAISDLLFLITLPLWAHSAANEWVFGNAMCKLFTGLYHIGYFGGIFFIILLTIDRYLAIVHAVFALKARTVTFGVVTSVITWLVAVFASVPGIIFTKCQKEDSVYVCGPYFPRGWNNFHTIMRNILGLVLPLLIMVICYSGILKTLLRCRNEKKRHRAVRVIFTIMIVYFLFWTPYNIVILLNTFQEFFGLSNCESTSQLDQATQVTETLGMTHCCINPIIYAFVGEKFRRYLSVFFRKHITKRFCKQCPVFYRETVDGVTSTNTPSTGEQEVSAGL

[2] = biological target: T2, CCR6 (Homo sapiens, UniProt P51684); experiment: as above; assay type: cell-based
T2 construct: expressed in transfected cells
T2 sequence (P51684 1-374): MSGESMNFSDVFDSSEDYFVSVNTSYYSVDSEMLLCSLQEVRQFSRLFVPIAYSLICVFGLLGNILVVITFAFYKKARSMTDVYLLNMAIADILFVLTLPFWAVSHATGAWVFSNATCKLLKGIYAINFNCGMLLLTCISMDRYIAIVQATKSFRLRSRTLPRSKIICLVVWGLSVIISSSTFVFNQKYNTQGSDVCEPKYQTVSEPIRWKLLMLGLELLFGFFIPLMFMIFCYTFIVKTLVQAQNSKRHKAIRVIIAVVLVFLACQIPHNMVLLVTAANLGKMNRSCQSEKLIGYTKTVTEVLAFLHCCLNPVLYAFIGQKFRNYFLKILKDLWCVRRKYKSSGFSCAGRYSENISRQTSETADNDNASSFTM

[3] = biological target: T3, CCR9 (Homo sapiens, UniProt P51686); experiment: as above; assay type: cell-based
T3 construct: expressed in transfected cells
T3 sequence (P51686 1-369): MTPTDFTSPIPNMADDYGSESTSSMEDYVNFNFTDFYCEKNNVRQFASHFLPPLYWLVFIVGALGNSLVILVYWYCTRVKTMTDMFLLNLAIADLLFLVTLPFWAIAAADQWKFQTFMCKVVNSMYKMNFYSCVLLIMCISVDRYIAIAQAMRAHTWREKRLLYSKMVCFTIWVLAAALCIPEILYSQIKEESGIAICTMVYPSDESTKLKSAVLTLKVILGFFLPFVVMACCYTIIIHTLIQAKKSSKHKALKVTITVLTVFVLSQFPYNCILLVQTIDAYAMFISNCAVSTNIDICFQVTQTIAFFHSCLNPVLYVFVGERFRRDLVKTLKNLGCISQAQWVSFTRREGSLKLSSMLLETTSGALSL

[4] = biological target: T4, CXCR3A (Homo sapiens, UniProt P49682); experiment: as above; assay type: cell-based
T4 construct: expressed in transfected cells; host or cells: U87 cells
T4 sequence (P49682 1-368): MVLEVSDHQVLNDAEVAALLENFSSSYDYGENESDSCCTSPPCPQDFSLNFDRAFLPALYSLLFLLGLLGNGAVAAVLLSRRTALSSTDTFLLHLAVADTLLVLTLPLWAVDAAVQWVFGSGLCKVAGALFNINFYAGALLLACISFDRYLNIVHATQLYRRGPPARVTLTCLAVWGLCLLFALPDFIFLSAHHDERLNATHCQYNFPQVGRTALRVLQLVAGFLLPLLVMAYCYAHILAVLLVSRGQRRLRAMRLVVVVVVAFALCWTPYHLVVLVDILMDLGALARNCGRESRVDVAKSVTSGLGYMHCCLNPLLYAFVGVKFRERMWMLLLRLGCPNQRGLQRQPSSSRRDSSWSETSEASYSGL

[5] = biological target: T5, CXCR6 (Homo sapiens, UniProt O00574); experiment: as above; assay type: cell-based
T5 construct: expressed in transfected cells

[6] = biological target: T6, XCR1 (Homo sapiens, UniProt P46094); experiment: as above; assay type: cell-based
T6 construct: expressed in transfected cells
T6 sequence (P46094 1-333): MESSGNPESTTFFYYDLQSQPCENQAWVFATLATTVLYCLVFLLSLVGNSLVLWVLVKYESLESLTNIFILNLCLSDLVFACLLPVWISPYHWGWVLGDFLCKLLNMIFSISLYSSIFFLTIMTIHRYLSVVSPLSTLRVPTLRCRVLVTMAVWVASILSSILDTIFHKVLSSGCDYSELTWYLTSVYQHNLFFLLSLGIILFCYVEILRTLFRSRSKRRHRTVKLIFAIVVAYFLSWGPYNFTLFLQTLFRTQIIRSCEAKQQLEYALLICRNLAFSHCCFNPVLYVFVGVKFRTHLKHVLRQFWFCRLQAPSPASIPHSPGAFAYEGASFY

[7] = biological target: ACKR3 (Homo sapiens, UniProt P25106); experiment: cell-based; conditions: read-out: ACKR3 activity, ctrl+ = 100, Figure S2a
[8] = replicate 1, read-out: CCR2 activity, ctrl+ = 100
[9] = replicate 2, read-out: CCR2 activity, ctrl+ = 100
[10] = replicate 1, read-out: CCR6 activity, ctrl+ = 100
[11] = replicate 2, read-out: CCR6 activity, ctrl+ = 100
[12] = replicate 1, read-out: CCR9 activity, ctrl+ = 100
[13] = replicate 2, read-out: CCR9 activity, ctrl+ = 100
[14] = replicate 1, read-out: CXCR3A activity, ctrl+ = 100
[15] = replicate 2, read-out: CXCR3A activity, ctrl+ = 100
[16] = replicate 1, read-out: CXCR6 activity, ctrl+ = 100
[17] = replicate 2, read-out: CXCR6 activity, ctrl+ = 100
[18] = replicate 1, read-out: XCR1 activity, ctrl+ = 100
[19] = replicate 2, read-out: XCR1 activity, ctrl+ = 100

T5 sequence (O00574 whole entry): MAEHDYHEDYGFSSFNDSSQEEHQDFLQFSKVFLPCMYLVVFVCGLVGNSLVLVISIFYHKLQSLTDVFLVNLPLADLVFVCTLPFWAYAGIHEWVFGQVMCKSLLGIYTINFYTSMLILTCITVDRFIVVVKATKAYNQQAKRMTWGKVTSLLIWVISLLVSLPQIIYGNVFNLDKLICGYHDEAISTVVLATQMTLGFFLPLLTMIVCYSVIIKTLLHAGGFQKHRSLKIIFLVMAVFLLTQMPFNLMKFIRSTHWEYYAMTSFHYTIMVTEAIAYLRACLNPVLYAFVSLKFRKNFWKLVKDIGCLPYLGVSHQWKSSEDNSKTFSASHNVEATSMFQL
Chain of ACKR3 (P25106 whole entry): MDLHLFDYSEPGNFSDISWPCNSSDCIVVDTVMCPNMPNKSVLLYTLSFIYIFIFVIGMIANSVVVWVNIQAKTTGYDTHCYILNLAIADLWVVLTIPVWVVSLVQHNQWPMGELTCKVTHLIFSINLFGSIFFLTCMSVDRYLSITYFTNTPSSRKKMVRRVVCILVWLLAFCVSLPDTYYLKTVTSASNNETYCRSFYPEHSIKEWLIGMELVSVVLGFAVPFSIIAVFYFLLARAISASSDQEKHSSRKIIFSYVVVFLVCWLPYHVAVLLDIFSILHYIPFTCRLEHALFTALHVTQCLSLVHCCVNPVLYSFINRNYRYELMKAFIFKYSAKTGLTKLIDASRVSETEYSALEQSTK

## CC[C@H](C)[C@H](NC(=O)[C@H](CCCNC(=N)N)NC(=O)[C@H](CCCNC(=N)N)NC(=O)[C@H](CC(C)C)NC(=O)[C@H](Cc1ccccc1)NC(=O)CNC(=O)CNC(=O)[C@@H](N)Cc1ccc(O)cc1)C(=O)N[C@@H](CCCNC(=N)N)C(=O)N1CCC[C@H]1C(=O)N[C@@H](CCCCN)C(=O)N[C@@H](CC(C)C)C(=O)N[C@@H](CCCCN)C(=O)N[C@@H](Cc1c[nH]c2ccccc12)C(=O)N[C@@H](CC(=O)O)C(=O)N[C@@H](CC(N)=O)C(=O)N[C@@H](CCC(N)=O)C(=O)O [Dynorphin A]
[1]; [8]
  activation: -0.0585%
[1]; [9]
  activation: -2.61%
[1]; replicate 3, read-out: CCR2 activity, ctrl+ = 100
  activation: -0.105%
[2]; [10]
  activation: -2.27%
[2]; [11]
  activation: -1.32%
[2]; replicate 3, read-out: CCR6 activity, ctrl+ = 100
  activation: -4.07%
[3]; [12]
  activation: 0.116%
[3]; [13]
  activation: -0.279%
[3]; replicate 3, read-out: CCR9 activity, ctrl+ = 100
  activation: 10.9%
[4]; [14]
  activation: -4.75%
[4]; [15]
  activation: -3.36%
[4]; replicate 3, read-out: CXCR3A activity, ctrl+ = 100
  activation: 7.92%
[5]; [16]
  activation: -0.0479%
[5]; [17]
  activation: -0.578%
[5]; replicate 3, read-out: CXCR6 activity, ctrl+ = 100
  activation: 0.283%
[6]; [18]
  activation: 4.69%
[6]; [19]
  activation: 7.1%
[6]; replicate 3, read-out: XCR1 activity, ctrl+ = 100
  activation: 11%
[7]; replicate 1
  activation: 127%
[7]; replicate 2
  activation: 60.7%
[7]; replicate 3
  activation: 99%

## CC(C)C[C@H](NC(=O)[C@H](CCCCN)NC(=O)[C@H](CCCN=C(N)N)NC(=O)[C@H](C)NC(=O)[C@H](CO)NC(=O)[C@H](CCCCN)NC(=O)[C@H](CCCN=C(N)N)NC(=O)[C@H](C)NC(=O)CNC(=O)[C@@H](NC(=O)[C@H](Cc1ccccc1)NC(=O)CNC(=O)CNC(=O)[C@@H](N)Cc1ccccc1)[C@@H](C)O)C(=O)N[C@@H](C)C(=O)N[C@@H](CC(N)=O)C(=O)N[C@@H](CCC(N)=O)C(=O)O [Nociceptin]
[1]; [8]
  activation: -0.0919%
[1]; [9]
  activation: -3.09%
[2]; [10]
  activation: -0.76%
[2]; [11]
  activation: 0.601%
[3]; [12]
  activation: 0.361%
[3]; [13]
  activation: 3.44%
[4]; [14]
  activation: -2.21%
[4]; [15]
  activation: -5.51%
[5]; [16]
  activation: -0.607%
[5]; [17]
  activation: -0.718%
[6]; [18]
  activation: 1.08%
[6]; [19]
  activation: -2.39%
[7]; replicate 2
  activation: 1.08%

## NC(=O)[C@H](Cc1ccccc1)NC(=O)[C@H](Cc1c[nH]c2ccccc12)NC(=O)[C@@H]1CCCN1C(=O)[C@@H](N)Cc1ccc(O)cc1 [Endomorphin-1]
[1]; [8]
  activation: 0.794%
[1]; [9]
  activation: -3.22%
[2]; [10]
  activation: 0.653%
[2]; [11]
  activation: 2.69%
[3]; [12]
  activation: -1.12%
[3]; [13]
  activation: 1.74%
[4]; [14]
  activation: 3.34%
[4]; [15]
  activation: -3.63%
[5]; [16]
  activation: -0.315%
[5]; [17]
  activation: 1.12%
[6]; [18]
  activation: 4.23%
[6]; [19]
  activation: 6.11%
[7]; replicate 1
  activation: 5.29%
[7]; replicate 2
  activation: 17%
